The values that follow come from patent publication US20050287552A1, “Carbohydrate encapsulated nanoparticle based affinity mass spectrometry” (Academia Sinica, Office of Public Affairs (Technology …, priority 2003, published 2005).

The assay addresses Con A (Canavalia ensiformis, UniProt P02866). Description: SPR competition binding assay for Con A. The following applies: Con A tetramer 0.5 uM, pre-incubated 1 hr with inhibitor. On the procedure: A self-assembled monolayer composed of 20% mannopyranoside ligand and 80% thiobutanol mixture was generated on a J1 biosensor chip (See FIG. 9). In particular, immobilization of ligand to the biosensor chip was preformed in BIAcore 3000 instrument. A mixture of 4-mercapto-1-butanol (Ligand A) and 5-thiopentyl α-D-mannopyranoside (Ligand B) in deionized water was injected into a flow cell with the J1 biochip.
Next, the binding affinity of Con A for this chip was determined by titration with a series of Con A concentrations to generate multiple SPR curves. In particular, Con A was dissolved in sample buffer (1.0 mL, 20 mM HEPES, pH 7.0, 90 mM NaCl with 1 mM MnCl2 and CaCl2) and then filtered by a syringe. Con A solution (50 μL) was injected over immobilized biosensor surface and allowed 260 seconds for dissociation and then followed by regeneration buffer. A set of SPR response curves was obtained after different concentrations of Con A solution were applied (See FIG. 10A, showing curves for 6, 3, 1.5, 0.38, 0.19 uM of Con A (top to bottom)).
Competition assays were then conducted. […] The mixture (50 uL) was then injected and the flow rate was controlled at 60 uL/minute. The equilibrium binding response values was collected at equilibrium binding portion of the curve (260 seconds post-injection). […]

The term Ki denotes a dissociation constant, usually derived from enzyme kinetics or from competition with a known ligand. A higher Ki goes with lower affinity. In turn, α-D-methyl-mannopyrannoside [αMeMan] came in with a Ki of 200 µM.
